According to patent publication US11098038B2, “Imidazole-based anticancer agents and derivatives thereof, and methods of making and using same” (The University of Toledo, priority 2017, dated 2021):

Key:
CCRF-CEM = test: NCI 60 screen, CCRF-CEM; type: cell-based; conditions: Homo sapiens, Leukemia
Method: (§1) The compounds synthesized were tested at the National Cancer Institute (NCI) for anti-proliferative activity in the 60 human tumor cell line assay.

HL-60(TB) = test: NCI 60 screen, HL-60(TB); type: cell-based; conditions: Homo sapiens, Leukemia
Method: as §1

MOLT-4 = test: NCI 60 screen, MOLT-4; type: cell-based; conditions: Homo sapiens, Leukemia
Method: as §1

RPMI-8226 = test: NCI 60 screen, RPMI-8226; type: cell-based; conditions: Homo sapiens, Leukemia
Method: as §1

SR = test: NCI 60 screen, SR; type: cell-based; conditions: Homo sapiens, Leukemia
Method: as §1

A549/ATCC = test: NCI 60 screen, A549/ATCC; type: cell-based; conditions: Homo sapiens, Non-Small Cell Lung
Method: as §1

EKVX = test: NCI 60 screen, EKVX; type: cell-based; conditions: Homo sapiens, Non-Small Cell Lung
Method: as §1

HOP-62 = test: NCI 60 screen, HOP-62; type: cell-based; conditions: Homo sapiens, Non-Small Cell Lung
Method: as §1

HOP-92 = test: NCI 60 screen, HOP-92; type: cell-based; conditions: Homo sapiens, Non-Small Cell Lung
Method: as §1

NCI-H226 = test: NCI 60 screen, NCI-H226; type: cell-based; conditions: Homo sapiens, Non-Small Cell Lung
Method: as §1

NCI-H23 = test: NCI 60 screen, NCI-H23; type: cell-based; conditions: Homo sapiens, Non-Small Cell Lung
Method: as §1

NCI-322M = test: NCI 60 screen, NCI-322M; type: cell-based; conditions: Homo sapiens, Non-Small Cell Lung
Method: as §1

NCI-460 = test: NCI 60 screen, NCI-460; type: cell-based; conditions: Homo sapiens, Non-Small Cell Lung
Method: as §1

NCI-H522 = test: NCI 60 screen, NCI-H522; type: cell-based; conditions: Homo sapiens, Non-Small Cell Lung
Method: as §1

COLO 205 = test: NCI 60 screen, COLO 205; type: cell-based; conditions: Homo sapiens, Colon
Method: as §1

HCC-2998 = test: NCI 60 screen, HCC-2998; type: cell-based; conditions: Homo sapiens, Colon
Method: as §1

HCT-116 = test: NCI 60 screen, HCT-116; type: cell-based; conditions: Homo sapiens, Colon
Method: as §1

HCT15 = test: NCI 60 screen, HCT15; type: cell-based; conditions: Homo sapiens, HCT-15, Colon
Method: as §1

HT29 = test: NCI 60 screen, HT29; type: cell-based; conditions: Homo sapiens, HT-29, Colon
Method: as §1

KM12 = test: NCI 60 screen, KM12; type: cell-based; conditions: Homo sapiens, Colon
Method: as §1

SW-620 = test: NCI 60 screen, SW-620; type: cell-based; conditions: Homo sapiens, Colon
Method: as §1

SF-268 = test: NCI 60 screen, SF-268; type: cell-based; conditions: Homo sapiens, CNS
Method: as §1

SF-295 = test: NCI 60 screen, SF-295; type: cell-based; conditions: Homo sapiens, CNS
Method: as §1

SF-539 = test: NCI 60 screen, SF-539; type: cell-based; conditions: Homo sapiens, CNS
Method: as §1

SNB-19 = test: NCI 60 screen, SNB-19; type: cell-based; conditions: Homo sapiens, CNS
Method: as §1

SNB-75 = test: NCI 60 screen, SNB-75; type: cell-based; conditions: Homo sapiens, CNS
Method: as §1

U251 = test: NCI 60 screen, U251; type: cell-based; conditions: Homo sapiens, U-251, CNS
Method: as §1

LOX IMVI = test: NCI 60 screen, LOX IMVI; type: cell-based; conditions: Homo sapiens, Melanoma
Method: as §1

MALME-3M = test: NCI 60 screen, MALME-3M; type: cell-based; conditions: Homo sapiens, Melanoma
Method: as §1

MDA-MB-435 = test: NCI 60 screen, MDA-MB-435; type: cell-based; conditions: Homo sapiens, Melanoma
Method: as §1

SK-MEL-2 [1] = test: NCI 60 screen, SK-MEL-2 (first line); type: cell-based; conditions: Homo sapiens; Melanoma, SK-MEL-2 (first of two lines so named, r37)
Method: as §1

SK-MEL-2 [2] = test: NCI 60 screen, SK-MEL-2 (second line); type: cell-based; conditions: Homo sapiens; Melanoma, SK-MEL-2 (second of two lines so named, r38)
Method: as §1

SK-MEL-5 = test: NCI 60 screen, SK-MEL-5; type: cell-based; conditions: Homo sapiens, Melanoma
Method: as §1

UACC-257 = test: NCI 60 screen, UACC-257; type: cell-based; conditions: Homo sapiens, Melanoma
Method: as §1

UACC-62 = test: NCI 60 screen, UACC-62; type: cell-based; conditions: Homo sapiens, Melanoma
Method: as §1

IGROV1 = test: NCI 60 screen, IGROV1; type: cell-based; conditions: Homo sapiens, IGROV-1, Ovarian
Method: as §1

OVCAR-3 = test: NCI 60 screen, OVCAR-3; type: cell-based; conditions: Homo sapiens, Ovarian
Method: as §1

OVCAR-4 = test: NCI 60 screen, OVCAR-4; type: cell-based; conditions: Homo sapiens, Ovarian
Method: as §1

OVCAR-5 = test: NCI 60 screen, OVCAR-5; type: cell-based; conditions: Homo sapiens, Ovarian
Method: as §1

OVCAR-8 = test: NCI 60 screen, OVCAR-8; type: cell-based; conditions: Homo sapiens, Ovarian
Method: as §1

NCI/ADR-RES = test: NCI 60 screen, NCI/ADR-RES; type: cell-based; conditions: Homo sapiens, Ovarian
Method: as §1

SK-OV-3 = test: NCI 60 screen, SK-OV-3; type: cell-based; conditions: Homo sapiens, Ovarian
Method: as §1

786-0 = test: NCI 60 screen, 786-0; type: cell-based; conditions: Homo sapiens, Renal
Method: as §1

A498 = test: NCI 60 screen, A498; type: cell-based; conditions: Homo sapiens, Renal
Method: as §1

ACHN = test: NCI 60 screen, ACHN; type: cell-based; conditions: Homo sapiens, Renal
Method: as §1

CAKI-1 = test: NCI 60 screen, CAKI-1; type: cell-based; conditions: Homo sapiens, Renal
Method: as §1

RXF393 = test: NCI 60 screen, RXF393; type: cell-based; conditions: Homo sapiens, RXF 393, Renal
Method: as §1

SN12C = test: NCI 60 screen, SN12C; type: cell-based; conditions: Homo sapiens, Renal
Method: as §1

TK-10 = test: NCI 60 screen, TK-10; type: cell-based; conditions: Homo sapiens, Renal
Method: as §1

UO-31 = test: NCI 60 screen, UO-31; type: cell-based; conditions: Homo sapiens, Renal
Method: as §1

PC-3 = test: NCI 60 screen, PC-3; type: cell-based; conditions: Homo sapiens, Prostatic
Method: as §1

DU-145 = test: NCI 60 screen, DU-145; type: cell-based; conditions: Homo sapiens, Prostatic
Method: as §1

MCF7 = test: NCI 60 screen, MCF7; type: cell-based; conditions: Homo sapiens, Breast
Method: as §1

MDA-MB-231/ATCC = test: NCI 60 screen, MDA-MB-231/ATCC; type: cell-based; conditions: Homo sapiens, Breast
Method: as §1

HS 578T = test: NCI 60 screen, HS 578T; type: cell-based; conditions: Homo sapiens, Breast
Method: as §1

BT-549 = test: NCI 60 screen, BT-549; type: cell-based; conditions: Homo sapiens, Breast
Method: as §1

T-47D = test: NCI 60 screen, T-47D; type: cell-based; conditions: Homo sapiens, T47D, Breast
Method: as §1

MDA-MB-468 = test: NCI 60 screen, MDA-MB-468; type: cell-based; conditions: Homo sapiens, Breast
Method: as §1

Compound: O=C(Cc1ccc(/C=C/C(=O)c2ncc[nH]2)cc1)Nc1cccc2ccccc12 [Compound 17, (E)-2-(4-(3-(1H-imidazol-2-yl)-3-oxoprop-1-en-1-yl)phenyl)-N-(naphthalen-1-yl)acetamide]
- melting point: 229 to 230 °C

Compound: COc1ccc(NC(=O)Cc2ccc(/C=C/C(=O)c3ncc[nH]3)cc2)cc1 [Compound 19, (E)-2-(4-(3-(1H-imidazol-2-yl)-3-oxoprop-1-en-1-yl)phenyl)-N-(4-methoxyphenyl) acetamide]
- melting point: 224 to 226 °C

Compound: Cc1ccc(NC(=O)Cc2ccc(/C=C/C(=O)c3ncc[nH]3)cc2)cc1 [Compound 20, (E)-2-(4-(3-(1H-imidazol-2-yl)-3-oxoprop-1-en-1-yl)phenyl)-N-(p-tolyl)acetamide]
- GI50 (CCRF-CEM): 4.67 µM
- GI50 (HL-60(TB)): 5.88 µM
- GI50 (MOLT-4): 5.33 µM
- GI50 (RPMI-8226): 1.79 µM
- GI50 (SR): 0.99 µM
- GI50 (A549/ATCC): 9.14 µM
- GI50 (EKVX): 1.35 µM
- GI50 (HOP-62): 5.24 µM
- GI50 (HOP-92): 1.85 µM
- GI50 (NCI-H226): 9.59 µM
- GI50 (NCI-H23): 5.85 µM
- GI50 (NCI-322M): 6.06 µM
- GI50 (NCI-460): 6.32 µM
- GI50 (NCI-H522): 4.54 µM
- GI50 (COLO 205): 7.27 µM
- GI50 (HCC-2998): 6.73 µM
- GI50 (HCT-116): 3.28 µM
- GI50 (HCT15): 2.01 µM
- GI50 (HT29): 0.955 µM
- GI50 (KM12): 3.09 µM
- GI50 (SW-620): 5.22 µM
- GI50 (SF-268): 5.32 µM
- GI50 (SF-295): 7.9 µM
- GI50 (SF-539): 4.76 µM
- GI50 (SNB-19): 6.65 µM
- GI50 (SNB-75): 7 µM
- GI50 (U251): 1.59 µM
- GI50 (LOX IMVI): 1.29 µM
- GI50 (MALME-3M): 25 µM
- GI50 (MDA-MB-435): 5.68 µM
- GI50 (SK-MEL-2 [1]): 18.1 µM
- GI50 (SK-MEL-2 [2]): 11.5 µM
- GI50 (SK-MEL-5): 18.3 µM
- GI50 (UACC-257): 25 µM
- GI50 (UACC-62): 8.29 µM
- GI50 (IGROV1): 6.47 µM
- GI50 (OVCAR-3): 1.67 µM
- GI50 (OVCAR-4): 10.4 µM
- GI50 (OVCAR-5): 6.84 µM
- GI50 (OVCAR-8): 7.24 µM
- GI50 (NCI/ADR-RES): 6.73 µM
- GI50 (SK-OV-3): 12.8 µM
- GI50 (786-0): 4.28 µM
- GI50 (A498): 19.9 µM
- GI50 (ACHN): 6.51 µM
- GI50 (CAKI-1): 9.63 µM
- GI50 (RXF393): 7.68 µM
- GI50 (SN12C): 5.91 µM
- GI50 (TK-10): 7.93 µM
- GI50 (UO-31): 3.01 µM
- GI50 (PC-3): 7.1 µM
- GI50 (DU-145): 4.56 µM
- GI50 (MCF7): 1.15 µM
- GI50 (MDA-MB-231/ATCC): 9.46 µM
- GI50 (HS 578T): 13.6 µM
- GI50 (BT-549): 6.42 µM
- GI50 (T-47D): 6.47 µM
- GI50 (MDA-MB-468): 3.3 µM
- melting point: 218.5 °C

Compound: O=C(Cc1ccc(/C=C/C(=O)c2ncc[nH]2)cc1)Nc1ccccc1 [Compound 21, (E)-2-(4-(3-(1H-imidazol-2-yl)-3-oxoprop-1-en-1-yl)phenyl)-N-phenylacetamide]
- melting point: 211 to 214 °C

Compound: O=C(Cc1ccc(/C=C/C(=O)c2ncc[nH]2)cc1)NC1CCCCC1 [Compound 23, (E)-2-(4-(3-(1H-imidazol-2-yl)-3-oxoprop-1-en-1-yl)phenyl)-N-cyclohexylacetamide]
- melting point: 208.5 °C
